PMC11375794, “Discovery of new Hsp90–Cdc37 protein–protein interaction inhibitors: in silico screening and optimization of anticancer activity” (RSC Advances, 2024)

test system: MCF-7 breast cancer cell line; assay: MTS cell viability (antiproliferative) assay in MCF-7; assay type: cell-based; conditions: Homo sapiens, MCF7, 72 h, MTS assay, 72 hours, mean ± SD
Description: Hormone-positive breast cancer cell line MCF-7 (ATCC-HTB-22; ATCC) was grown in Dulbecco's Modified Eagle's Medium (DMEM), while Ewing sarcoma cell line SK-N-MC (a kind gift from Beat Schäfer) and THP-1 (ATCC-TIB-202; ATCC) cells were grown in Roswell Park Memorial Institute (RPMI) 1640. The medium was supplemented with 10% heat-inactivated fetal bovine serum (Gibco, Thermo Fisher Scientific, Waltham, MA, USA), 100 U per mL penicillin, 100 μg per mL streptomycin, and 2 mM L-glutamine (all from Sigma-Aldrich, St. Louis, MO, USA). All cell lines were incubated at 37 °C in a 5% CO2 atmosphere.
The antiproliferative activity of the compounds was evaluated against MCF-7 (ATCC-HTB-22; ATCC), SK-N-MC (a kind gift from Beat Schäfer) and THP-1 (ATCC-TIB-202; ATCC) cancer cell lines using the MTS assay (Promega, Madison, WI, USA). Cells were seeded in 96-well plates at a density of 2 × 10^4 cells per mL in 100 μL of growth medium for THP-1 and were treated with compounds and controls directly, while 3 × 10^3 cells per mL for MCF-7 and SK-N-MC were seeded in 100 μL of growth medium and allowed to adhere overnight following the treatment. In all cases the cells were treated with respective newly prepared compounds, positive controls (17-DMAG for MCF-7 and SK-N-MC; PU-H71 for THP-1) and a vehicle control (0.5% DMSO). The incubation time after treatment was 72 hours, then CellTiter96® Aqueous One Solution Reagent (Promega, Madison, WI, USA) was added to each well. Following a 3 hours incubation, absorbance was measured at 492 nm using BioTek's Synergy™ 4 Hybrid Microplate Reader (Winooski, VT, USA). The measurements were performed in two biological repetitions and each time the experiment was performed in a triplicate. The IC50 values, representing the concentration of inhibitor required for half-maximal inhibition, are the average of three independent experiments and were calculated using GraphPad Prism 9.5.0 software (San Diego, CA, USA).

| IC50 [µM] | SMILES |
| --- | --- |
| 31.9 ± 3.2 | O=C(NCCc1ccccc1)c1cccc(Nc2cc(N3CCNCC3)ncn2)c1 [Compound 13a, N-Phenethyl-3-((6-(piperazin-1-yl)pyrimidin-4-yl)amino)benzamide] |
| > 50 | CN(CCc1ccccc1)C(=O)c1cccc(Nc2cc(N3CCNCC3)ncn2)c1 [Compound 13d, N-Methyl-N-phenethyl-3-((6-(piperazin-1-yl)pyrimidin-4-yl)amino)benzamide] |
| > 50 | CN(CCOc1ccccc1)C(=O)c1ccc(Nc2cc(N3CCCC3)ncn2)cc1 [Compound 11j, N-Methyl-N-(2-phenoxyethyl)-4-((6-(pyrrolidin-1-yl)pyrimidin-4-yl)amino)benzamide] |
| 18.3 ± 7 | CN(Cc1ccccc1)C(=O)c1ccc(Nc2cc(N3CCCC3)ncn2)cc1 [Compound 11h, N-Benzyl-N-methyl-4-((6-(pyrrolidin-1-yl)pyrimidin-4-yl)amino)benzamide] |
| 31.9 ± 2.1 | CN(Cc1ccccc1)C(=O)c1cccc(Nc2cc(N3CCNCC3)ncn2)c1 [Compound 13c, N-Benzyl-N-methyl-3-((6-(piperazin-1-yl)pyrimidin-4-yl)amino)benzamide] |
| 17.1 ± 1.4 | CN(Cc1ccccc1)C(=O)c1csc(Nc2cc(N3CCNCC3)ncn2)n1 [Compound 8a, N-Benzyl-N-methyl-2-((6-(piperazin-1-yl)pyrimidin-4-yl)amino)thiazole-4-carboxamide] |
| 20.8 ± 2.7 | CN(CCOc1ccccc1)C(=O)c1ccc(Nc2cc(N3CCNCC3)ncn2)cc1 [Compound 13j, N-Methyl-N-(2-phenoxyethyl)-4-((6-(piperazin-1-yl)pyrimidin-4-yl)amino)benzamide] |
| 18 ± 1.5 | CN(CCc1ccccc1)C(=O)c1ccc(Nc2cc(N3CCCC3)ncn2)cc1 [Compound 11i, N-Methyl-N-phenethyl-4-((6-(pyrrolidin-1-yl)pyrimidin-4-yl)amino)benzamide] |
| 29.1 ± 5 | CN(CCc1ccccc1)C(=O)c1cccc(Nc2cc(N3CCCC3)ncn2)c1 [Compound 11d, N-Methyl-N-phenethyl-3-((6-(pyrrolidin-1-yl)pyrimidin-4-yl)amino)benzamide] |
| 17.9 ± 0.5 | O=C(NCCc1ccccc1)c1ccc(Nc2cc(N3CCNCC3)ncn2)cc1 [Compound 13f, N-Phenethyl-4-((6-(piperazin-1-yl)pyrimidin-4-yl)amino)benzamide] |

Second part, the molecule before the results:

| SMILES | IC50 [µM] |
| --- | --- |
| COc1ccc(OCCN(C)C(=O)c2csc(Nc3cc(C4CCCN(CC#N)C4)nc(C)n3)n2)cc1 (stereo not shown) [Compound 2] | 47.4 ± 0.9 |
| N#CCN1CCN(c2cc(Nc3ccc(C(=O)NCCOc4ccccc4)cc3)ncn2)CC1 [Compound 24, 4-((6-(4-(Cyanomethyl)piperazin-1-yl)pyrimidin-4-yl)amino)-N-(2-phenoxyethyl)benzamide] | > 50 |
| CN(CCc1ccccc1)C(=O)c1csc(Nc2cc(N3CCCC3)ncn2)n1 [Compound 6b, N-Methyl-N-phenethyl-2-((6-(pyrrolidin-1-yl)pyrimidin-4-yl)amino)thiazole-4-carboxamide] | 15.2 ± 0.7 |
| CN(CCc1ccccc1)C(=O)c1cccc(Nc2cc(N3CCC(N)CC3)ncn2)c1 [Compound 18, 3-((6-(4-Aminopiperidin-1-yl)pyrimidin-4-yl)amino)-N-methyl-N-phenethylbenzamide] | > 50 |
| CN(CCc1ccccc1)C(=O)c1cccc(Nc2cc(N3CCCCC3)ncn2)c1 [Compound 14, N-Methyl-N-phenethyl-3-((6-(piperidin-1-yl)pyrimidin-4-yl)amino)benzamide] | > 50 |
| NC1CCN(c2cc(Nc3ccc(C(=O)NCCOc4ccccc4)cc3)ncn2)CC1 [Compound 23, 4-((6-(4-Aminopiperidin-1-yl)pyrimidin-4-yl)amino)-N-(2-phenoxyethyl)benzamide] | > 50 |
| O=C(NCCOc1ccccc1)c1ccc(Nc2cc(N3CCC(O)CC3)ncn2)cc1 [Compound 21, 4-((6-(4-Hydroxypiperidin-1-yl)pyrimidin-4-yl)amino)-N-(2-phenoxyethyl)benzamide] | > 50 |

same assay, conditions: MTS assay, 72 hours, mean ± SD

| MCF-7 IC50 | SMILES |
| --- | --- |
| loss of activity | N#CCN1CCN(c2cc(Nc3ccc(C(=O)NCCOc4ccccc4)cc3)ncn2)CC1 [Compound 24, 4-((6-(4-(Cyanomethyl)piperazin-1-yl)pyrimidin-4-yl)amino)-N-(2-phenoxyethyl)benzamide] |
| not active | CN(CCc1ccccc1)C(=O)c1cccc(Nc2cc(N3CCC(N)CC3)ncn2)c1 [Compound 18, 3-((6-(4-Aminopiperidin-1-yl)pyrimidin-4-yl)amino)-N-methyl-N-phenethylbenzamide] |
